Reference: patent US20240400986A1, “MEMBRANE BOUND COMPOSITIONS AND METHODS RELATING TO SAME” (FLAGSHIP PIONEERING INNOVATIONS VII, LLC, priority 2021, published 2024)
Read-outs that look alike come from different tables or passages of the source.

Legend:
[1] = test system: neuronal cell line derived from human neuroblastoma
[2] = test system: neuronal cell line derived from human neuroblastoma; experiment: Small molecule compound screen of gigasome production in neuronal monocultures; conditions: for fold induction at 0.01 µM / fold induction at 0.1 µM / fold induction at 1 µM: Homo sapiens, read-out: Fold Change of Gigasomes Produced vs. DMSO; for Number of Gigasomes Produced / Fold Change of Gigasomes Produced vs. DMSO: 24 hours
From the text: To quantify and characterize gigasome production using microscopy, while tracking cell viability/phenotype, a multi-readout system was developed that allowed simultaneous analysis of gigasomes harvested from cell culture media supernatants and respective gigasome producing cell viability. […] For the screening, a total of 99 compounds (TargetMol) were divided in 5 groups. Each group included an untreated condition, a vehicular DMSO control, and a known high-gigasome producing condition to comparatively study gigasome production rates. As a cell death control group, 500 nM Staurosporine was added to induce apoptosis. Cultures were incubated for 24 hours under gigasome inducing conditions at concentrations ranging between 10 nM and 10,000 nM. Before the end of the treatment, live neuronal cultures were imaged. The Zeiss ZEN Blue software was used to distribute imaging fields of view (positions) to create an unbiased imaging sample of a well. 5 images were taken using a Zeiss LSM 900 confocal microscope. […] The BioApps ZEN software package was used to perform cell nucleus segmentation and counting. After 24 hours, gigasomes were harvested from the cell culture media by gently removing from the top of each 96-well ⅔ of the total volume without disturbing the cell layer (containing the settled gigasomes) and by adding to each well the same amount of PBS. The wells were washed twice gently, and the gigasome-containing media/PBS wash was transferred into the well of a 384-well glass bottom plate. Cells remaining in the 96-well plates were assessed for viability using CellTiter-Glo (Promega).
For gigasome analysis in 384-well plates, the Zeiss ZEN Blue software was used to distribute positions to create an unbiased imaging sample of a well. 6 images per well were taken using a Zeiss LSM 900 confocal microscope.
A watershed binary segmentation step was performed to separate grouped objects. For each particle in the mask, characteristic parameters of the particle were calculated and saved.
Particles of interest were identified by thresholding by area and circularity. […] Circularity, defined by the formula 4pi(area/perimeter^2, was set to be between 0.8 and 1, where a value of 1.0 is a perfect circle, and a value of 0 is a line. Gigasomes were identified from the particles of interest by thresholding by mean nuclear signal. The nuclear signal threshold was set using a value equal to one fourth of a threshold value calculated by the Li auto-threshold algorithm applied to the distribution of all particles of interest. Particles of interest with nuclear signal below this value were considered “negative” for nuclear material and were identified as gigasomes. A sampling factor was calculated to extrapolate the total quantity of a type of object (particles, particles of interest, gigasomes) in the well. The sampling factor was the percentage of the well's area that was imaged. […] The normalized quantity or distribution of objects was described as a quantity or distribution of objects per 1000 cells.

[3] = test system: cardiomyocytic cell line derived from human ventricular heart tissue; experiment: Small molecule compound screen of gigasome production in cardiomyocytic monocultures;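 note: gigasomes shed into the culture medium were imaged by confocal microscopy and counted as round particles lacking nuclear signal, extrapolated to the whole well, fold change is relative to DMSO vehicle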
Method: For the screening, a total of 100 randomly organized compounds (TargetMol) were divided in 5 groups. Each group included an untreated condition, a vehicular DMSO control, and a known high-gigasome producing condition to comparatively study gigasome production rates. As a cell death control group, 500 nM Staurosporine was added to induce apoptosis. Cultures were incubated for 24 hours under gigasome inducing conditions at concentrations ranging between 10 nM and 10,000 nM. […] The Zeiss ZEN Blue software was used to distribute imaging fields of view (positions) to create an unbiased imaging sample of a well. 5 images were taken using a Zeiss LSM 900 confocal microscope. […] The BioApps ZEN software package was used to perform cell nucleus segmentation and counting. After 24 hours, gigasomes were harvested from the cell culture media by gently removing from the top of each 96-well ⅔ of the total volume without disturbing the cell layer (containing the settled gigasomes) and by adding to each well the same amount of PBS containing 0.5 mM EDTA. The wells were washed twice gently, and the gigasome-containing media/0.5 mM EDTA PBS wash was transferred into the well of a 384-well glass bottom plate. Cells remaining in the 96-well plates were assessed for viability using CellTiter-Glo (Promega).
For gigasome analysis in 384-well plates, the Zeiss ZEN Blue software was used to distribute positions to create an unbiased imaging sample of a well. 6 images per well were taken using a Zeiss LSM 900 confocal microscope. […] A watershed binary segmentation step was performed to separate grouped objects. For each particle in the mask, characteristic parameters of the particle were calculated and saved. […] Particles of interest were identified by thresholding by area and circularity. […] Circularity, defined by the formula 4pi(area/perimeter^2, was set to be between 0.8, where a value of 1.0 is a perfect circle, and a value of 0 is a line. Gigasomes were identified from the particles of interest by thresholding by mean nuclear signal. The nuclear signal threshold was set using a value equal to one quarter of a threshold value calculated by the Li auto-threshold algorithm applied to the distribution of all particles of interest. Particles of interest with nuclear signal below this value were considered “negative” for nuclear material and were identified as gigasomes. A sampling factor was calculated to extrapolate the total quantity of a type of object (particles, particles of interest, gigasomes) in the well. The sampling factor was the percentage of the well's area that was imaged. […] In some experiments, the number of cells in the cell cultures were estimated with a cell counter. […] The normalized quantity or distribution of objects was described as a quantity or distribution of objects per 1000 cells.

[4] = neuronal cells, dose 10 nM, 24 hours
[5] = neuronal cells, dose 100 nM, 24 hours
[6] = neuronal cells, dose 1000 nM, 24 hours
[7] = Table 23 (down-regulators), dose 10 nM, cardiomyocytes
[8] = Table 23 (down-regulators), dose 100 nM, cardiomyocytes
[9] = Table 23 (down-regulators), dose 1000 nM, cardiomyocytes
[10] = Table 23 (down-regulators), dose 10000 nM, cardiomyocytes
[11] = Table 22, dose 1000 nM, cardiomyocytes, 24 hours
[12] = Table 22, dose 10 nM, cardiomyocytes, 24 hours
[13] = Table 22, dose 100 nM, cardiomyocytes, 24 hours

Cc1ncc(-c2ccnc(Nc3ccc(S(C)(=O)=O)cc3)n2)n1C(C)C [AZD-5438]
Viability ([1]; human, 24 h, 10 nM): 100%
Viability ([1]; human, 24 h, 100 nM): 100%
Viability ([1]; human, 24 h, 1000 nM): 100%
fold induction at 0.01 µM ([2]; 24 h): 1.5 to 1.75
fold induction at 0.1 µM ([2]; 24 h): 1.25 to 1.5
fold induction at 1 µM ([2]; 24 h): 1 to 1.25
Number of Gigasomes Produced ([2]; neuronal cells, dose 10 nM): 45-55
Number of Gigasomes Produced ([2]; neuronal cells, dose 100 nM): 35-45
Number of Gigasomes Produced ([2]; neuronal cells, dose 1000 nM): 35-45

O=C(c1ccc2nccnc2c1)N1CCCCC1 [CX516]
Viability [1, 4]: 100%
Viability [1, 5]: 100%
Viability [1, 6]: 100%
fold induction at 0.01 µM ([2]; 24 h): 0.75 to 1
fold induction at 0.1 µM ([2]; 24 h): 1.25 to 1.5
fold induction at 1 µM ([2]; 24 h): 1 to 1.25
Number of Gigasomes Produced ([2]; neuronal cells, dose 10 nM): <35
Number of Gigasomes Produced ([2]; neuronal cells, dose 100 nM): 45-55
Number of Gigasomes Produced ([2]; neuronal cells, dose 1000 nM): 35-45

CC(=O)c1cc2c(o1)C(=O)c1ccccc1C2=O [Napabucasin]
Viability [1, 4]: 100%
Viability [1, 5]: 100%
fold induction at 0.01 µM ([2]; 24 h): 1 to 1.25
fold induction at 0.1 µM ([2]; 24 h): 1.5 to 1.75
Number of Gigasomes Produced ([2]; neuronal cells, dose 10 nM): 35-45
Number of Gigasomes Produced ([2]; neuronal cells, dose 100 nM): 45-55

COC(=O)c1ccccc1NC(=O)c1ccc(F)cc1 [EXO1, reference compound]
Viability [1, 4]: 100%
Viability [1, 5]: 100%
Viability [1, 6]: 100%
Viability ([1]; neuronal cells, dose 10000 nM, 24 hours): 100%
Fold Change of Gigasomes Produced vs. DMSO ([2]; neuronal cells, dose 10 nM): 0.75-1.0
Number of Gigasomes Produced ([2]; neuronal cells, dose 10 nM): 35-40
Fold Change of Gigasomes Produced vs. DMSO ([2]; neuronal cells, dose 100 nM): 0.5-0.75
Number of Gigasomes Produced ([2]; neuronal cells, dose 100 nM): 20-25
Fold Change of Gigasomes Produced vs. DMSO ([2]; neuronal cells, dose 1000 nM): 0.25-0.5
Number of Gigasomes Produced ([2]; neuronal cells, dose 1000 nM): 10-15
Fold Change of Gigasomes Produced vs. DMSO ([2]; neuronal cells, dose 10000 nM): 0.25-0.5
Number of Gigasomes Produced ([2]; neuronal cells, dose 10000 nM): 10-15
downregulation of gigasome production ([2]; neuronal cells, doses 10-10,000 nM, 24 h): dose-dependent downregulation

CCC(C)(C)C(=O)O[C@H]1C[C@@H](C)C=C2C=C[C@H](C)[C@H](CC[C@@H]3C[C@@H](O)CC(=O)O3)[C@H]21 [Simvastatin]
Number of Gigasomes Produced ([2]; neuronal cells, dose 100 nM): <35
Number of Gigasomes Produced ([2]; neuronal cells, dose 1000 nM): 35-45
Number of Gigasomes Produced ([2]; neuronal cells, dose 10000 nM): 45-55

C/C(=C\c1csc(C)n1)[C@@H]1C[C@@H]2O[C@]2(C)CCC[C@H](C)[C@H](O)[C@@H](C)C(=O)C(C)(C)[C@@H](O)CC(=O)N1 [Ixabepilone]
Viability ([1]; human, 24 h, 10 nM): 50-75%
fold induction at 0.01 µM ([2]; 24 h): 2 to 3
Number of Gigasomes Produced ([2]; neuronal cells, dose 10 nM): 65-75

Fc1ccc(CNc2ncnc3ccc(F)cc23)cc1 [Spautin-1]
Fold Change of Gigasomes Produced vs. DMSO [3, 7]: 0.75-1.0
Number of Gigasomes Produced [3, 7]: 105-120
Fold Change of Gigasomes Produced vs. DMSO [3, 8]: 0.75-1.0
Number of Gigasomes Produced [3, 8]: 120-135
Fold Change of Gigasomes Produced vs. DMSO [3, 9]: 0.5-0.75
Number of Gigasomes Produced [3, 9]: 90-105
Fold Change of Gigasomes Produced vs. DMSO [3, 10]: 0.5-0.75
Number of Gigasomes Produced [3, 10]: 75-90

O=C(Nc1ccccc1-c1cn2c(CN3CCNCC3)csc2n1)c1cnc2ccccc2n1 [SRT 1720]
Fold Change of Gigasomes Produced vs. DMSO [3, 11]: 1.0-1.25
Number of Gigasomes Produced [3, 11]: 150-175

C[C@H](NC(=O)Cc1cc(F)cc(F)c1)C(=O)N[C@H](C(=O)OC(C)(C)C)c1ccccc1 [DAPT]
Fold Change of Gigasomes Produced vs. DMSO [3, 12]: 1.0-1.25
Number of Gigasomes Produced [3, 12]: 200-225
Fold Change of Gigasomes Produced vs. DMSO [3, 13]: 1.25-1.5
Number of Gigasomes Produced [3, 13]: 250-275

O=C1CSC(c2ccccc2Cl)c2cc(Cl)ccc2N1 (centres unmarked) [CGP37157, reference compound]
Fold Change of Gigasomes Produced vs. DMSO [3, 7]: 0.75-1.0
Number of Gigasomes Produced [3, 7]: 120-135
Fold Change of Gigasomes Produced vs. DMSO [3, 8]: 0.75-1.0
Number of Gigasomes Produced [3, 8]: 105-120
Fold Change of Gigasomes Produced vs. DMSO [3, 9]: 0.25-0.5
Number of Gigasomes Produced [3, 9]: 50-75
Fold Change of Gigasomes Produced vs. DMSO [3, 10]: 0.25-0.5
Number of Gigasomes Produced [3, 10]: 50-75
downregulation of gigasome production ([3]; cardiomyocytes, doses 10-10,000 nM, 24 h): dose-dependent downregulation

NC(=O)C1CCCc2c1[nH]c1ccc(Cl)cc21 (centres unmarked) [Selisistat]
Fold Change of Gigasomes Produced vs. DMSO [3]: 1.25-1.5
Number of Gigasomes Produced [3, 12]: 150-175
